Among the data in article PMC5082600, “New furoisocoumarins and isocoumarins from the mangrove endophytic fungus Aspergillus sp. 085242” (Beilstein Journal of Organic Chemistry, 2016) are EC50 and melting point values, retold here.

Data set [1] can be described thus: DPPH free radical scavenging assay. The following applies: DPPH 150 μM in MeOH, 30 min, room temperature, absorbance at 490 nm; vitamin C as positive control. The method, then:
The assay for DPPH radical scavenging activity was measured by a reported method, with slight modifications. Firstly, 180 μL of DPPH^· (150 μM in MeOH) and 20 μL of a series of test compound solutions (31.2, 62.5, 125, 250, 500 μM in MeOH) were mixed in each well of a 96-well microtiter plate. The reaction was measured by determination of the absorbance Asample+DPPH· using a microtiter plate reader at 490 nm after shaking for 30 min at room temperature in the dark. Twenty μL test samples of each concentration with 180 μL of MeOH were used as the blank measurement for each tested compound, and the absorbance was recorded as Asample. The absorbance of the mixture of 20 μL of MeOH and 180 μL of DPPH^· was recorded as ADPPH·, and the absorbance of the 200 μL of MeOH was measured as Ablank. The natural antioxidant vitamin C was used as a positive control. Calculations of the DPPH^· scavenging activity was performed according to the following equation: scavenging activity (%) = [1 − (Asample+DPPH· − Asample)/(ADPPH· − Ablank)] × 100%. All measurements were done in triplicate from two independent experiments. The reported EC50 was the average value of two independent experiments.

As to `CC(C)c1cc2ccc3c(c2o1)C(=O)O[C@H](C)C3` [Compound 3, (R)-2-isopropyl-7-methyl-6,7-dihydro-9H-furo[3,2-h]isochromen-9-one], the EC50 in data set [1] is 130 µM.
`COc1cc2c(c(O)c1COCc1c(OC)cc3c(c1O)C(=O)OCC3)C(=O)OCC2` [Compound 6, asperisocoumarin F]: the melting point is 201.1 to 203 °C.
Regarding `O=C1O[C@H]([C@@H](O)CO)C(O)=C1O` [vitamin C, reference compound], the EC50 in data set [1] was 35 µM.
Still for that read-out and setting: to `CC(C)=C1Oc2c(ccc3cc(C)oc(=O)c23)C1=O` [Compound 1, 7-methyl-2-(propan-2-ylidene)-9H-furo[3,2-h]isochromene-3,9(2H)-dione] belongs 125 µM.
With `CC(C)[C@H]1Oc2c(ccc3c2C(=O)O[C@H](C)C3)[C@H]1O` [Compound 2, asperisocoumarin B], the melting point lay in the range of 179.4 to 181.4 °C.
